Test results: article PMC8469489, “Effect of Lactic Acid Bacteria on the Pharmacokinetics and Metabolism of Ginsenosides in Mice” (Pharmaceutics, 2021)
Where two headings read alike, the source gives them in different places.

Tests used:
[1] = system: lactic acid bacteria (LAB); experiment: Incubation of single ginsenoside with LAB (formation rate of metabolite ginsenoside); type: in vitro ADME; conditions: 7 days, 37 °C, MRS broth
Method: To compare the involvement of LAB on individual ginsenoside, an aliquot (10 μL) of each ginsenoside stock solution (10 mM in methanol) was mixed with autoclaved MRS broth (550 mg/10 mL in distilled water) and added 2 g of LAB (contained 1 billion CFU). Then, the mixture was incubated for 7 days in a shaking incubator at 37 °C and 300 rpm. For the analysis of ginsenosides, 0.2 mL aliquot of incubation mixture was collected every 24 h for 7 days. The incubation medium was diluted 100-fold with distilled water and stored at −80 °C. For the ginsenoside analysis, 200 μL of an IS solution (0.05 ng/mL berberine in methanol) was added to 30 μL of 100-fold diluted samples.

[2] = design: method as in PMID 26470874; conditions: 10–60 mg, intramuscular injection; cited from earlier work
[3] = system: lactic acid bacteria (LAB); experiment: In vitro RGE fermentation with LAB
[4] = Recovery of ginsenosides from urine and feces for 48 h after RGE, amoxicillin vs control; conditions: feces 48 h after single oral RGE 2 g/kg; vs control
Method: Aliquots (200 μL) of an IS (0.05 ng/mL berberine in methanol) were added to 30 μL of plasma or urine samples. Aliquots (600 μL) of an IS methanol solution containing 0.05 ng/mL berberine were added to 100 μL of 10% feces homogenate samples. […] After centrifugation, 200 μL of the supernatant was transferred to a clean tube and dried under a nitrogen stream at 40 °C. The residue was reconstituted using 100 μL of 70% methanol supplemented with 0.1% formic acid, and a 10-μL aliquot was injected into the LC–MS/MS system.

[5] = Recovery of ginsenosides from urine and feces for 48 h after RGE, amoxicillin with or without LAB; conditions: feces 48 h after single oral RGE 2 g/kg; Amoxicillin + LAB vs amoxicillin
Method: (§2) Mice received amoxicillin (n = 12, 20 mg/kg, dissolved in water at 2 mL/kg, twice daily) for 3 days via oral gavage. From the 4th day, mice from the LAB + amoxicillin treatment group received LAB (2 g/kg suspended in water at 2 mL/kg, once daily) for 7 days via oral gavage. Mice from the amoxicillin treatment group received water (2 mL/kg, once daily) for 7 days via oral gavage.

[6] = Pharmacokinetics of ginsenosides after single oral RGE after amoxicillin with or without repeated LAB treatment; conditions: single oral RGE 2 g/kg
Method: as §2
Blood sampling was performed using a sparse sampling method via the right or left retro-orbital vein under isoflurane anesthesia at 0, 2, 4, and 8 h after the RGE administration through the heparinized capillary tube. […] After centrifugation of the blood samples at 10,000× g for 1 min, 30 μL aliquots of plasma were stored at −80 °C until the analysis of the ginsenosides. Subsequent protocols were identical to the amoxicillin treated group.
Pharmacokinetic parameters were calculated using WinNonlin (version 5.1, Pharsight, Mountain View, CA, USA) by a non-compartmental analysis.

[7] = Pharmacokinetics of ginsenosides after single oral RGE with or without amoxicillin treatment; type: in vivo, mice; conditions: mouse, in vivo, po, 2 g/kg
Method: Male ICR mice (7-weeks-year-old, 30–35 g) were purchased from Samtako Co. (Osan, Kyunggi-do, Korea). Animals were acclimatized for 1 week in an animal facility at Kyungpook National University. Food and water were available ad libitum.
(§1) Before blood sampling, mice were anesthetized using isoflurane (isoflurane vaporizer to 2% with oxygen flow at 0.8 L/min) for 5 min.

[8] = system: lactic acid bacteria (LAB)
[9] = Plasma protein binding by rapid equilibrium dialysis; type: in vitro ADME; conditions: 4 h at 37 °C
Method: Briefly, 100 μL of mouse plasma containing 1 μM of each ginsenoside was added to the semipermeable membrane’s inner sample chamber (molecular weight cut-off 8000 Da), and 300 μL of PBS was added to the outer buffer chamber. The samples were then incubated for 4 h at 37 °C on a shaking incubator at 300 rpm, followed by collecting 30-μL aliquots from both the sample and buffer chambers.
Subsequent protocols were identical to the method described above except for the use of ice-cold IS solution (200 μL; 0.05 ng/mL berberine in acetonitrile) to 30 μL of the reaction samples.
Plasma protein binding was calculated using the following equation [31, 60]: Plasma protein binding=(1−Drug concentration in buffer chamber/Drug concentration in plasma sample chamber)×100(%).

Caco-2 cell monolayers = conditions: Caco-2, pH 7.4
Method: (§3) The culture medium was replaced every other day. On the day of the experiment, the growth medium was discarded, and the attached cells were washed with prewarmed HBSS (pH 7.4) and preincubated with HBSS for 20 min at 37 °C, and the permeability assay was conducted as previously described [53]. Briefly, to measure the apical to basal permeability of each ginsenoside, 0.5 mL of HBSS containing 50 µM of individual ginsenoside (GRb1, GRb2, GRc, GRd, GRe, GRf, GRg1, GRg3, GRh1, GRh2, GF1, GF2, CK, PPD, or PPT) was added to the apical side (inside of the insert) and 1.5 mL of fresh HBSS was added to the basal side of the insert. […] Aliquots (0.1 mL) in basal side were transferred to clean tubes and stored at −80 °C until further analysis. Transport study was performed for 1 h based on the linearity of the cumulative transport amounts of ginsenosides against the transport time. The integrity of cell monolayers was evaluated before and after the permeability experiments by measuring the transepithelial electrical resistance (TEER) values using an epithelial volt/ohm meter (World Precision Instruments; Sarasota, FL, USA). […]
(§4) For the permeability calculation, the transport rate of ginsenosides and marker conpounds was calculated from the slope of the regression line from the mean permeated amounts vs. incubation time plot.

[10] = Plasma amoxicillin concentrations after repeated oral administration of amoxicillin; type: in vivo, mice; conditions: at 24, 48, and 72 h after the beginning of amoxicillin treatment (20 mg/kg/day oral, twice daily, 3 days)
Method: as §1
The standard calibration curve for amoxicillin was linear in the concentration range of 2–5000 ng/mL for the plasma samples, and the interday and intraday precision and accuracy were <15%.

LAB = system: LAB; design: method as in PMID 15902467; conditions: cited from earlier work
Caco-2 cells = conditions: cited from earlier work
[11] = cited from earlier work
[12] = Caco-2 permeability (apical to basal); conditions: human, Caco-2, pH 7.4
Method: as §3, §4

## CC(C)=CCC[C@](C)(O)[C@H]1CC[C@]2(C)[C@@H]1[C@H](O)C[C@@H]1[C@@]3(C)CC[C@H](O[C@@H]4O[C@H](CO)[C@@H](O)[C@H](O)[C@H]4O[C@@H]4O[C@H](CO)[C@@H](O)[C@H](O)[C@H]4O)C(C)(C)[C@@H]3CC[C@]12C [GRg3]
[1]
  Metabolite formation on incubation of single ginsenoside with LAB: GRh2 and PPD were produced
[2]
  Increase of plasma exposure over the 6-fold dose range: 7.3 fold
[3]; 7 days, relative to the first day
  Increase of ginsenoside by fermentation of RGE with LAB: about 30%
[4]
  Fecal recovery, change by the amoxicillin treatment: increased
[5]
  Fecal recovery, change by LAB treatment: significantly decreased
[6]; Amoxicillin + LAB (LAB 2 g/kg once daily 7 days), AUC 0 to 48 h
  AUC: 25.3 ± 10.6 ng·h/mL
[6]; Amoxicillin + LAB
  Cmax: 4.8 ± 1.9 ng/mL
  Half-Life: 5.3 ± 1.1 h
  MRT: 3.5 ± 0.9 h
  Tmax: 2.5 ± 1.0 h
[6]
  Detection in mouse plasma following repeated LAB administration in addition to amoxicillin: detected
  Detection in plasma, control mice and amoxicillin group: not detected
  Plasma exposure / pharmacokinetic parameters, LAB treatment compared with amoxicillin group: increased

## CC(C)=CCC[C@](C)(O)[C@H]1CC[C@]2(C)[C@@H]1[C@H](O)C[C@@H]1[C@@]3(C)CC[C@H](O)C(C)(C)[C@@H]3CC[C@]12C [PPD, 20(S)-proptopanaxadiol]
[7]
  Half-Life: 7.9 ± 1.8 h
  MRT: 12.6 ± 4.7 h
[8]
  Alteration of ginsenoside by fermentation of RGE with LAB: significantly increased

## CC(C)=CCC[C@](C)(O)[C@H]1CC[C@]2(C)[C@@H]1[C@H](O)C[C@@H]1[C@@]3(C)CC[C@H](O)C(C)(C)[C@@H]3[C@@H](O)C[C@]12C [PPT, 20(S)-protopanaxatriol]
[7]
  Half-Life: 20.4 ± 2.3 h
  MRT: 20.2 ± 2.2 h
[9]; 1 μM, mouse plasma
  Plasma protein binding: over 99%
Caco-2 cell monolayers
  Papp,AB: 3.72 ± 0.56 × 10^−6 cm/s
[3]; 7 days incubation
  Alteration of ginsenoside by fermentation of RGE with LAB: significantly increased
[4]
  Fecal recovery, change by the amoxicillin treatment: significantly decreased
[5]
  Fecal recovery, change by LAB treatment: significantly increased

## CC1(C)S[C@@H]2[C@H](NC(=O)[C@H](N)c3ccc(O)cc3)C(=O)N2[C@H]1C(=O)O [amoxicillin]
[10]
  Plasma amoxicillin concentration: 0.9 to 1.8 µg/mL
LAB
  Concentration of amoxicillin that must be maintained to inhibit the growth of LAB: ≤ 2 µg/mL

## CC(C)NCC(O)COc1cccc2ccccc12 (centres unmarked) [propranolol]
[9]; pooled mouse plasma
  fraction unbound at 4 h, 1 μM: 0.103
Caco-2 cells
  Papp,AB reference values: 18.8–33.1 × 10^−6 cm/s
[11]
  Plasma protein binding reference values: 87–96%
[12]
  Papp A→B at 1 h: 21.6 ± 2.35 ×10⁻⁶ cm/s
